Reference: US10828326B2, “Compositions and methods for treating and preventing venom related poisoning” (priority 2015, dated 2020)

Columns and labels:
Crotalus atrox venom = assay: Thrombelastography of human plasma pretreated with iron and/or CO, then incubated with Crotalus atrox venom (Example I); assay type: biochemical; details: 0.5 μg/ml venom, 5 min incubation
Protocol: (§1) Two-hundred mg of lyophilized, pooled venom was obtained from four western diamondback rattlesnakes (Crotalus atrox) for experimentation. Venom was reconstituted in calcium-free phosphate buffered saline (PBS, Sigma-Aldrich, Saint Louis, Mo., USA) at a concentration of 20 mg/ml, aliquoted, and then stored at −80° C. until experimentation at the University of Arizona. Pooled human normal plasma (George King Bio-Medical, Overland Park, Kans., USA) anticoagulated with sodium citrate was rapidly thawed at 37° C. and used for experimentation. To assess the effects of pretreatment of fibrinogen with iron, CO, or both, 1% additions of PBS, ferric chloride (FeCl3, 99.9% pure, Sigma-Aldrich, Saint Louis, Mo., USA) in PBS, or CORM-2 (tricarbonyldichlororuthenium (II) dimer, a CO releasing molecule, Sigma-Aldrich, Saint Louis, Mo., USA) dissolved in dimethyl sulfoxide (DMSO, Sigma-Aldrich, Saint Louis, Mo., USA). The final concentrations of FeCl3 and CORM-2 were 10 μM and 100 μM, respectively; these concentrations are associated with nearly maximal augmenting effects on coagulation kinetics (see, Nielsen V G, et al., Blood Coagul Fibrinolysis 2014; 25:695-702). Plasma was exposed to these various agents for at least 5 min prior to incubations with venom.
(§2) The final volume for all subsequently described plasma sample mixtures was 359.4 μl. Sample composition consisted of 326 μl of plasma; 10 μl of tissue factor reagent (0.1% final concentration in distilled water; Diagnostica Stago S.A.S., Asnieres sur Seine, France) and 3.4 μl of PBS or venom (final concentration 0.5 μg/ml). […] The aforementioned plasma and venom mixtures were placed in a disposable cup in a computer-controlled Thrombelastograph® hemostasis system (Model 5000, Haemoscope Corp., Niles, Ill., USA) and incubated for 5 or 20 min at 37° C., with addition of 20 μl of 200 mM CaCl2) as the last step to initiate clotting. Data were collected at 37° C. for 15 min after 5 min of incubation, whereas samples incubated with venom for 20 min had data collected for 30 min, given the prolonged onset of coagulation and diminished rate of thrombus formation. The following elastic modulus-based parameters previously described (see, Nielsen, et al., 2014, Blood Coagul. Fibrinolysis 25:695-702; Nielsen, et al., 2011, Blood Coagul. Fibrinolysis 22: 443-447); Nielsen V G, et al., Blood Coagul Fibrinolysis 2014; 25:845-850) were determined: time to maximum rate of thrombus generation (TMRTG): this is the time interval (min) observed prior to maximum speed of clot growth; maximum rate of thrombus generation (MRTG): this is the maximum velocity of clot growth observed (dynes/cm^2/sec); and total thrombus generation (TTG, dynes/cm^2), the final viscoelastic resistance observed after clot formation.
(§3) Data are presented as mean+SD. A commercially available statistical program was used for one-way analysis of variance followed by Holm-Sidak post hoc analyses (SigmaStat 3.1, Systat Software, Inc., San Jose, Calif., USA). Graphics depicting viscoelastic data were generated with a commercially available program (OrigenPro 7.5, OrigenLab Corporation, Northampton, Mass., USA; CorelDRAW12, Corel Corporation, Mountain View, Calif., USA).

human plasma = assay: Thrombelastography of venom naïve human plasma with iron and/or CO addition (Example I); assay type: biochemical; details: baseline (venom naïve); 10 μM FeCl3 and/or 100 μM CORM-2; compared to plasma without any additions
Protocol: as §1, §2, §3

## [Cl][Fe]([Cl])[Cl] [iron, ferric chloride]
Crotalus atrox venom; vs matched venom naïve samples
  maximum rate of thrombus generation (MRTG), change on venom exposure: significantly decreased
Crotalus atrox venom; vs plasma without additions exposed to venom
  maximum rate of thrombus generation (MRTG): significantly greater
Crotalus atrox venom; vs samples without iron/CO additions or with CO addition alone
  time to maximum rate of thrombus generation (TMRTG): significantly smaller
Human plasma
  maximum rate of thrombus generation (MRTG): increases
  time to maximum rate of thrombus generation (TMRTG): significantly decreases
  total thrombus generation (TTG): does not affect
